Experimental data reported in patent publication US20260317364A1, “ACTIVE MACROLIDE ANTIBIOTIC COMPOUNDS AGAINST PATHOGENS” (priority 2023, published 2026).

Legend:
[1] = test system: E. coli tolC-deficient (tolC; MB5747); experiment: Antibacterial activity against tolC-deficient E. coli; format: cell-based
[2] = test system: panel of bacterial isolates, including macrolide-resistant strains; experiment: Antibacterial activity against panel of bacterial isolates (MIC); format: cell-based; conditions: comparison with other compounds of the series or reference macrolides
Experimental: Acylides 2-24, as well as carbamate acylides 29-42, 47-48 and 55 and 56 were tested for antibacterial activity against a panel of bacterial isolates, including macrolide-resistant strains. Furthermore, potential toxicity against human HEK293 and red blood cells was assessed. All compounds were submitted to ComPlat (Karlsruhe Institute of Technology, Germany) for compound management and screening. As reference antibiotics, the macrolide antibiotics clarithromycin (CTY), telithromycin (TEL), solithromycin (SOL), as well as the previously reported acylides TEA0777 and X10324 (See, Wayne, P. C. a. L. S. I., Methods for Dilution Antimicrobial Susceptibility Tests for Bacteria That Grow Aerobically. CLSI document M07. CLSI 2009) were employed. […]
Furthermore, the Gram-negative bacteria E. coli (DSM 30083), Acinetobacter baumannii Bouvet and Grimont 1986 (DSM 30007) and Pseudomonas aeruginosa (DSM 50071) were assayed. […] The MIC values were determined as previously described (See, Wayne, P. C. a. L. S. I., Methods for Dilution Antimicrobial Susceptibility Tests for Bacteria That Grow Aerobically. CLSI document M07. CLSI 2009; Albada, H. B., et al., Modulating the activity of short arginine-tryptophan containing antibacterial peptides with N-terminal metallocenoyl groups. 2012. 8(1): p. 1753-1764).

Compound	activity against tolC-deficient E. coli [1]	antibacterial activity (in words) [2]
CC[C@H]1OC(=O)[C@H](C)[C@@H](O[C@H]2C[C@@](C)(OC)[C@@H](O)[C@H](C)O2)[C@H](C)[C@@H](O[C@@H]2O[C@H](C)C[C@H](N(C)C)[C@H]2O)[C@](C)(OC)C[C@@H](C)C(=O)[C@H](C)[C@@H](O)[C@]1(C)O [clarithromycin]	apart from the clinically used clarithromycin and telithromycin show activity	–
CC[C@H]1OC(=O)[C@H](C)C(=O)[C@H](C)[C@@H](O[C@@H]2O[C@H](C)C[C@H](N(C)C)[C@H]2O)[C@](C)(OC)C[C@@H](C)C(=O)[C@H](C)[C@H]2N(CCCCn3cnc(-c4cccnc4)c3)C(=O)O[C@]12C [telithromycin]	apart from the clinically used clarithromycin and telithromycin show activity	–
2-desfluoro-solithromycin [Compound 50]	–	significantly less potent than solithroymcin
